How the values were obtained:
AR [1] = test: Immunohistochemical staining of xenograft tumors, AR; assay type: in vivo; conditions: mice treated with 30 mg/kg (FIG. 8B)
Method: (§1) Mice xenograft tissue samples were fixed in 10% formalin and embedded in paraffin. After routine rehydration, antigen retrieval and blocking, the sections were incubated in the primary antibody at 4° C. overnight. The primary antibody was recognized by the biotinylated secondary antibody and visualized by vectastain avidin-biotin complex peroxidase system (ABC kit) as well as peroxidase substrate 3,3′-diaminobenzidine kit (DAB kit).
(§2) Immunohistochemical staining was conducted using a cleaved caspase-3-specific antibody. […] Similar staining was carried our using an AR-specific antibody.

[2] = system: lung cancer cell line A549; test: MTT growth inhibition assay, A549; assay type: cell-based, human; conditions: A549, lung adenocarcinoma
Method: (§3) The results were determined by three independent experiments.
(§4) Besides, the above assay was also conducted on gastric cancer cell line NCI-N87, liver cancer cell line HepG2 and J5, lung cancer cell line A549, and oral cancer cell line OECM-1.

LNCaP cells = test: Cell cycle analysis by flow cytometry; assay type: cell-based, human; conditions: 24 h
Method: The cell cycle was determined by flow cytometry with DNA staining to reveal the total amount of DNA. Approximately 5×10^5 of cells were incubated in various concentration of isochaihulactone for the indicated time. Cells were harvested by treating the cells with trypsin/EDTA. The cells were collected, washed with PBS, fixed with cold 70% ethanol overnight, and then stained with a solution containing […] PI, 10 mg/ml RNase A, and 0.1% Triton X-100 for 1 h in the dark. The cells will then pass through FACScan flow cytometer (equipped with a 488-nmargon laser) to measure the DNA content. The data was obtained and analyzed with CellQuest 3.0.1 (Becton Dickinson, Franklin Lakes, N.J.) and ModFitLT V2.0 software. The results are shown Table 4 and FIG. 4.
Assays were carried out to examine the effect of Z-K8 in inducing G2/M phase arrest and apoptosis in LNCaP cells. Briefly, the cells were treated with different concentrations of Z-K8 (ranging from 0.25 to 2 μM) for 24 h. The cell cycle analysis was done according to the method described above. As shown in FIG. 4 and Table 4, Z-K8 induced cell cycle G2/M arrest in LNCaP cells.

[3] = system: liver cancer cell line J5; test: MTT growth inhibition assay, J5; assay type: cell-based; conditions: J5, hepatocarcinoma
Method: as §3, §4

cleaved caspase-3 = test: Immunohistochemical staining of xenograft tumors, cleaved caspase-3; assay type: in vivo; conditions: mice treated with 30 mg/kg (FIG. 8A)
Method: as §1, §2

AR [4] = test: RT-PCR analysis of AR expression; assay type: cell-based, human
Method: Total RNA from LNCaP, PC3, 3T3 cells was isolated as described above. cDNA was synthesized by reverse transcription of 2 μg of total RNA using oligo(dT)12-18 and SuperScript II RNA reverse transcriptase (Invitrogen). The cDNA was then used as the template to amplify the corresponding DNA fragments by PCR using two sets of synthetic oligonucleotide primers. DNA amplification was performed by PCR with the Thermocycler 2400 (PerkinElmer Life and Analytical Sciences, Boston, Mass.) using the following parameters: 35 cycles of denaturing at 95° C. for 1 min, annealing at 60° C. for 1 min, and extension at 72° C. for 2 min. Primers used for the AR PCR amplifications are (F): 5′-ATGGTGAGCAGAGTGCCCTA-3′ (SEQ ID NO: 1) (R): 5′-GTGGTGCTGGAAGCCTCTCCT-3′ (SEQ ID NO: 2) PSA (F) 5′-GGTGACCAAGTTCATGCTGTG-3′ (SEQ ID NO: 3) (R) 5′-GTGTCCTTGATCCACTTCCG-3′ (SEQ ID NO: 4) products were separated on 2% agarose gels, stained with ethidium bromide, and visualized using the Fluor Chem imaging system (Alpha InnoTech, San Leandro, Calif.), and levels of glyceraldehyde-3-phosphate dehydrogenase were used as the control.
RT-PCR was conducted to examine the effect of Z-K8 on several human cancer cells. Briefly, the cells were treated with Z-K8 (0.5 μM to 2 μM) or Luteolin (as a positive control) for 24 h. […]

[5] = system: gastric cancer cell line NCI-N87; test: MTT growth inhibition assay, NCI-N87; assay type: cell-based; conditions: NCI-N87, gastric carcinoma
Method: as §3, §4

COc1cc(/C=C2\C(=O)OCC2Cc2ccc3c(c2)OCO3)cc(OC)c1OC (racemic) [Z-K8, Racemic (Z)-β-(3′,4′-Methylenedioxybenzyl)-α-(3′,4′,5′-trimethoxybenzylidene)-γ-butyrolactone]
expression of AR in tumors (IHC) versus control (AR [1]): weaker
IC50 [2]: 9.8 µM
Cells in phase (%) G0/G1 (LNCaP cells; 0.25 μM): 63.56%
Cells in phase (%) G2/M (LNCaP cells; 0.25 μM): 18.35%
Cells in phase (%) S (LNCaP cells; 0.25 μM): 5.42%
Cells in phase (%) Sub-G1 (LNCaP cells; 0.25 μM): 0.48%
Cells in phase (%) G0/G1 (LNCaP cells; 0.5 μM): 48.30%
Cells in phase (%) G2/M (LNCaP cells; 0.5 μM): 24.99%
Cells in phase (%) S (LNCaP cells; 0.5 μM): 6.61%
Cells in phase (%) Sub-G1 (LNCaP cells; 0.5 μM): 3.24%
Cells in phase (%) G0/G1 (LNCaP cells; 1 μM): 57.27%
Cells in phase (%) G2/M (LNCaP cells; 1 μM): 10.16%
Cells in phase (%) S (LNCaP cells; 1 μM): 4.70%
Cells in phase (%) Sub-G1 (LNCaP cells; 1 μM): 8.19%
Cells in phase (%) G0/G1 (LNCaP cells; 2 μM): 22.25%
Cells in phase (%) G2/M (LNCaP cells; 2 μM): 43.92%
Cells in phase (%) S (LNCaP cells; 2 μM): 8.39%
Cells in phase (%) Sub-G1 (LNCaP cells; 2 μM): 5.73%
IC50 [3]: 2.5 µM
expression of cleaved caspase-3 in tumors (IHC) versus control (cleaved caspase-3): increased more
AR expression over time (RT-PCR) (AR [4]; LNCaP cells, 1 μM, different times (FIG. 3B)): decreased AR expression in a time-dependent manner
AR expression (RT-PCR) (AR [4]; human cancer cells, 0.5 μM to 2 μM, 24 h, dose-dependent (FIG. 3A)): down regulated
IC50 [5]: > 100 µM
